{"source": "patent US7524880B2", "about": "“Crystalline form of a substituted pyrrolidine compound” (Theravance, Inc., priority 2004, dated 2009)", "key": {"hM3 receptor": {"target": "T1, hM3 receptor (Homo sapiens, UniProt P20309)", "T1 construct": "expressed in transfected cells", "T1 sequence (P20309 whole entry)": "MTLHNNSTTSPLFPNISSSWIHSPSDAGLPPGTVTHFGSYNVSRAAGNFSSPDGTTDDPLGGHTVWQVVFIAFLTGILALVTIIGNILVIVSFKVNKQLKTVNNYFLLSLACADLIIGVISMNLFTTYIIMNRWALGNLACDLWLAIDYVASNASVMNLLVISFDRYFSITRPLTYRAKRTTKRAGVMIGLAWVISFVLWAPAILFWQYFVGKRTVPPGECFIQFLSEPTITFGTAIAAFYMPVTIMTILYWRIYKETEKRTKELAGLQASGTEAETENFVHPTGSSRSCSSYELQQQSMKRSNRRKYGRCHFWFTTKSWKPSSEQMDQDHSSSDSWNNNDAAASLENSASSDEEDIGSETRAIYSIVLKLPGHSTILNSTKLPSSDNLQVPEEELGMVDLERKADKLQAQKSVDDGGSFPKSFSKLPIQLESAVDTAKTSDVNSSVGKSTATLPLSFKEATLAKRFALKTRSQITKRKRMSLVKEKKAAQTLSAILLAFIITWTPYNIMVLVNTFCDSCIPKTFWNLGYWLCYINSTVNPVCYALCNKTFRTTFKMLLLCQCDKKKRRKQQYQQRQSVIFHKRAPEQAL", "assay": "Blockade of agonist-mediated calcium release via FLIPR", "type": "cell-based", "settings": "CHO cells stably expressing the hM3 receptor, oxotremorine EC90", "description": "C. Blockade of Agonist-Mediated Calcium Release Via FLIPR Assays\nMuscarinic receptor subtypes (M1, M3 and M5 receptors), which couple to Gq proteins, activate the phospholipase C (PLC) pathway upon agonist binding to the receptor. As a result, activated PLC hydrolyzes phosphatyl inositol diphosphate (PIP2) to diacylglycerol (DAG) and phosphatidyl-1,4,5-triphosphate (IP3), which in turn generates calcium release from intracellular stores, i.e., endoplasmic and sarcoplasmic reticulum. […] This fluorescence event is measured in real time by the FLIPR, which detects the change in fluorescence from a monolayer of cells cloned with human M1 and M3, and chimpanzee M5 receptors. Antagonist potency is determined by the ability of antagonists to inhibit agonist-mediated increases in intracellular calcium. […]\nTo determine antagonist potency, the dose-dependent stimulation of intracellular Ca^2+ release for oxotremorine was first determined so that antagonist potency can later be measured against oxotremorine stimulation at an EC90 concentration. […]\nThe parameters used for the FLIPR were: exposure length of 0.4 seconds, laser strength of 0.5 watts, excitation wavelength of 488 nm, and emission wavelength of 550 nm. Baseline was determined by measuring the change in fluorescence for 10 seconds prior to addition of agonist. […]"}, "[1]": {"system": "ACh-induced bronchoconstriction", "assay": "Duration of bronchoprotection in guinea pig model of acetylcholine-induced bronchoconstriction", "type": "in vivo", "settings": "inhalation, 1.5 hours post-dose", "experimental": "Groups of six male guinea pigs (Duncan-Hartley (HsdPoc:DH) Harlan, Madison, Wis.) weighing between 250 and 350 g were individually identified by cage cards. Throughout the study animals were allowed access to food and water ad libitum.\nThe test compound was administered via inhalation over 10 minutes in a whole-body exposure dosing chamber (R&S Molds, San Carlos, Calif.). The dosing chambers were arranged so that an aerosol was simultaneously delivered to 6 individual chambers from a central manifold. Guinea pigs were exposed to an aerosol of a test compound or vehicle (WFI). […] This was measured gravimetrically by comparing pre-and post-nebulization weights of the filled nebulizer.\nThe bronchoprotective effects of a test compound administered via inhalation were evaluated using whole body plethysmography at 1.5, 24, 48 and 72 hours post-dose.\nForty-five minutes prior to the start of the pulmonary evaluation, each guinea pig was anesthetized with an intramuscular injection of ketamine (43.75 mg/kg), xylazine (3.50 mg/kg) and acepromazine (1.05 mg/kg). […] The depth of anesthesia was monitored and adjusted if the animal responded to pinching of its paw or if the respiration rate was greater than 100 breaths/minute. […]\nStarting this program initiated the experimental protocol and data collection. […] By integrating this signal over time, a measurement of flow was calculated for each breath. […]"}}}
{"smiles": "CNCCCCCCCCN1CC[C@@H](C(C(N)=O)(c2ccccc2)c2ccccc2)C1", "note": "[compound of formula I, 2-[(S)-1-(8-methylaminooctyl)pyrrolidin-3-yl]-2,2-diphenylacetamide]", "values": [{"measurement": "Ki", "setting": "hM3 receptor", "result": "< 5", "unit": "nM"}, {"measurement": "PD2(50) for ACh-induced bronchoconstriction", "setting": "[1]", "result": "less than 200 μg/mL"}]}
